Measured values taken from PubChem BioAssay AID2060496 (Molecular Pharmacology Branch, DTP, NCI, 2025).
pIC50: −log10 of the molar value.

Tested on: 276233-004-R-J1-PDC complex spheroid viability
Assay: Anticancer human tumor 276233-004-R-J1-PDC patient-derived colon adenocarcinoma cell line growth inhibition [GQUAD]
Conditions: for pIC50: curve of first compound; for viability, T/C: stronger effect = lower value
Outline: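 Viability of tumor cells grown as complex spheroids with endothelial and stromal cells, exposed to drug combinations. Top concentration at or near clinical Cmax (else 10 microM), diluted in half-log increments.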

[1] = second compound 0.0316 µM, first compound 0.0316 µM
[2] = second compound 0.0316 µM, first compound 0.1 µM
[3] = second compound 0.0316 µM, first compound 0.316 µM
[4] = second compound 0.0316 µM, first compound 1 µM
[5] = second compound 0.0316 µM, first compound 3.16 µM
[6] = second compound 0.0316 µM, first compound 10 µM
[7] = second compound 0.1 µM, first compound 0.0316 µM
[8] = second compound 0.1 µM, first compound 0.1 µM
[9] = second compound 0.1 µM, first compound 0.316 µM
[10] = second compound 0.1 µM, first compound 1 µM
[11] = second compound 0.1 µM, first compound 3.16 µM
[12] = second compound 0.1 µM, first compound 10 µM
[13] = second compound 0.316 µM, first compound 0.0316 µM
[14] = second compound 0.316 µM, first compound 0.1 µM
[15] = second compound 0.316 µM, first compound 0.316 µM
[16] = second compound 0.316 µM, first compound 1 µM
[17] = second compound 0.316 µM, first compound 3.16 µM
[18] = second compound 0.316 µM, first compound 10 µM
[19] = second compound 1 µM, first compound 0.0316 µM
[20] = second compound 1 µM, first compound 0.1 µM
[21] = second compound 1 µM, first compound 0.316 µM
[22] = second compound 1 µM, first compound 1 µM
[23] = second compound 1 µM, first compound 3.16 µM
[24] = second compound 1 µM, first compound 10 µM
[25] = second compound 3.16 µM, first compound 0.0316 µM
[26] = second compound 3.16 µM, first compound 0.1 µM
[27] = second compound 3.16 µM, first compound 0.316 µM
[28] = second compound 3.16 µM, first compound 1 µM
[29] = second compound 3.16 µM, first compound 3.16 µM
[30] = second compound 3.16 µM, first compound 10 µM
[31] = second compound 10 µM, first compound 0.0316 µM
[32] = second compound 10 µM, first compound 0.1 µM
[33] = second compound 10 µM, first compound 0.316 µM
[34] = second compound 10 µM, first compound 1 µM
[35] = second compound 10 µM, first compound 3.16 µM
[36] = second compound 10 µM, first compound 10 µM
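Further: spheroids exposed to drugs for seven days.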
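Wherever viability, T/C is given: 100% = DMSO vehicle control viability.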

C=CC(=O)N1CCN(c2nc(=O)n(-c3c(C)ccnc3C(C)C)c3nc(-c4c(O)cccc4F)c(F)cc23)C(C)C1 (stereo unspecified) + Cc1[nH]c2ccc(F)cc2c1-c1nc2c3cccnc3c3ncccc3c2[nH]1
pIC50 (second compound 0.0316 µM): < 5.00 | pIC50 (second compound 0.1 µM): < 5.00 | pIC50 (second compound 0.316 µM): < 5.00 | pIC50 (second compound 1 µM): < 5.00 | pIC50 (second compound 3.16 µM): < 5.00 | pIC50 (second compound 10 µM): > 7.50 | viability, T/C [1]: 106% | viability, T/C [2]: 95.5% | viability, T/C [3]: 85.4% | viability, T/C [4]: 90% | viability, T/C [5]: 95.2% | viability, T/C [6]: 88.5% | viability, T/C [7]: 102% | viability, T/C [8]: 91.9% | viability, T/C [9]: 103% | viability, T/C [10]: 108% | viability, T/C [11]: 81.4% | viability, T/C [12]: 93% | viability, T/C [13]: 75.5% | viability, T/C [14]: 94.9% | viability, T/C [15]: 74.5% | viability, T/C [16]: 83.4% | viability, T/C [17]: 87.4% | viability, T/C [18]: 84.4% | viability, T/C [19]: 81.4% | viability, T/C [20]: 90.4% | viability, T/C [21]: 78.4% | viability, T/C [22]: 73.4% | viability, T/C [23]: 84.9% | viability, T/C [24]: 80.9% | viability, T/C [25]: 70.7% | viability, T/C [26]: 50.6% | viability, T/C [27]: 49.4% | viability, T/C [28]: 52.3% | viability, T/C [29]: 68.6% | viability, T/C [30]: 52.2% | viability, T/C [31]: 39% | viability, T/C [32]: 38.7% | viability, T/C [33]: 61% | viability, T/C [34]: 53.1% | viability, T/C [35]: 56% | viability, T/C [36]: 51%

CC1COCCN1c1cc(-c2ccnn2C)c2ccnc(-c3ccn[nH]3)c2n1 (stereo unspecified) + Cc1[nH]c2ccc(F)cc2c1-c1nc2c3cccnc3c3ncccc3c2[nH]1
pIC50 (second compound 0.0316 µM): < 5.00 | pIC50 (second compound 0.1 µM): < 5.00 | pIC50 (second compound 0.316 µM): < 5.00 | pIC50 (second compound 1 µM): 5.14 | pIC50 (second compound 3.16 µM): > 7.50 | pIC50 (second compound 10 µM): > 7.50 | viability, T/C [1]: 84.6% | viability, T/C [2]: 69.4% | viability, T/C [3]: 87% | viability, T/C [4]: 70.5% | viability, T/C [5]: 57.9% | viability, T/C [6]: 56.3% | viability, T/C [7]: 76.1% | viability, T/C [8]: 68% | viability, T/C [9]: 68.9% | viability, T/C [10]: 60% | viability, T/C [11]: 68.1% | viability, T/C [12]: 55.3% | viability, T/C [13]: 90.5% | viability, T/C [14]: 87.7% | viability, T/C [15]: 71.2% | viability, T/C [16]: 60.3% | viability, T/C [17]: 57% | viability, T/C [18]: 59.7% | viability, T/C [19]: 89.3% | viability, T/C [20]: 86.6% | viability, T/C [21]: 65.4% | viability, T/C [22]: 60.8% | viability, T/C [23]: 57.6% | viability, T/C [24]: 46.2% | viability, T/C [25]: 48.1% | viability, T/C [26]: 48.5% | viability, T/C [27]: 53.9% | viability, T/C [28]: 45.1% | viability, T/C [29]: 44.1% | viability, T/C [30]: 32.5% | viability, T/C [31]: 42% | viability, T/C [32]: 49.6% | viability, T/C [33]: 40.8% | viability, T/C [34]: 40.2% | viability, T/C [35]: 37.8% | viability, T/C [36]: 32.4%

CC1COCCN1c1cc(C2(O)CC3CCC(C2)O3)c2cnn(-c3ccn[nH]3)c2n1 (stereo unspecified) + Cc1[nH]c2ccc(F)cc2c1-c1nc2c3cccnc3c3ncccc3c2[nH]1
pIC50 (second compound 0.0316 µM): < 5.00 | pIC50 (second compound 0.1 µM): 5.51 | pIC50 (second compound 0.316 µM): 5.58 | pIC50 (second compound 1 µM): 6.18 | pIC50 (second compound 3.16 µM): 7.15 | pIC50 (second compound 10 µM): > 7.50 | viability, T/C [1]: 91% | viability, T/C [2]: 68% | viability, T/C [3]: 79% | viability, T/C [4]: 72.5% | viability, T/C [5]: 55.6% | viability, T/C [6]: 51% | viability, T/C [7]: 74.6% | viability, T/C [8]: 87% | viability, T/C [9]: 74.8% | viability, T/C [10]: 60.4% | viability, T/C [11]: 52.8% | viability, T/C [12]: 44.5% | viability, T/C [13]: 87.2% | viability, T/C [14]: 76.1% | viability, T/C [15]: 57.4% | viability, T/C [16]: 62.7% | viability, T/C [17]: 54% | viability, T/C [18]: 36% | viability, T/C [19]: 60.4% | viability, T/C [20]: 70% | viability, T/C [21]: 65.6% | viability, T/C [22]: 41.7% | viability, T/C [23]: 39.6% | viability, T/C [24]: 27.9% | viability, T/C [25]: 51.4% | viability, T/C [26]: 50.9% | viability, T/C [27]: 43.2% | viability, T/C [28]: 36% | viability, T/C [29]: 33.2% | viability, T/C [30]: 26.2% | viability, T/C [31]: 46.3% | viability, T/C [32]: 44.3% | viability, T/C [33]: 42.5% | viability, T/C [34]: 35.9% | viability, T/C [35]: 26.7% | viability, T/C [36]: 21.6%
